The values that follow come from patent publication US20140031227A1, “HERBICIDAL COMPOSITIONS COMPRISING 4-AMINO-3-CHLORO-5-FLUORO-6-(4-CHLORO-2-FLUORO-3-METHOXYPHENYL) PYRIDINE-2-CARBOXYLIC ACID OR A DERIVATIVE THEREOF AND GLYPHOSATE OR GLUFOSINATE” (DOW AGROSCIENCES LLC, priority 2012, published 2014).

Structures can show the parent of a compound that is named as a salt.

Holding throughout (format): in vivo
The test system of test [1] is CYPDI (Cyperus difformis L., smallflower umbrella sedge). As to the kind of experiment: Example I postemergence foliar-applied mixtures, direct seeded rice weeds, greenhouse: CYPDI. How it is done:
Seeds or nutlets of the desired test plant species were planted in a soil matrix prepared by mixing a loam or sandy loam soil (e.g., 28.6 percent silt, 18.8 percent clay, and 52.6 percent sand, with a pH of about 5.8 and an organic matter content of about 1.8 percent) and calcareous grit in an 80 to 20 ratio. The soil matrix was contained in plastic pots with a volume of 1 quart and a surface area of 83.6 square centimeters (cm^2). […] The plants were grown for 8-22 days in a greenhouse with an approximate 14 hr photoperiod which was maintained at about 29° C. during the day and 26° C. during the night. Nutrients (Peters Excel® 15-5-15 5-Ca 2-Mg and iron chelate) were applied in the irrigation solution as needed and water was added on a regular basis. Supplemental lighting was provided with overhead metal halide 1000-Watt lamps as necessary. The plants were employed for testing when they reached the first through fourth true leaf stage.
Treatments consisted of the acid or esters of 4-amino-3-chloro-5-fluoro-6-(4-chloro-2-fluoro-3-methoxy-phenyl)pyridine-2-carboxylic acid (Compound A), each formulated as an SC (suspension concentrate), and various herbicidal components alone and in combination. Forms of compound A were applied on an acid equivalent basis.
For treatments comprised of formulated compounds, measured amounts of compounds were placed individually in 25 mL glass vials and diluted in a volume of 1.25% (v/v) Agri-Dex® crop oil concentrated to obtain 12× stock solutions. […] Application solutions were prepared by adding an appropriate amount of each stock solution (e.g., 1 mL) and diluted to the appropriate final concentrations with the addition of 10 mL of an aqueous mixture of 1.25% (v/v) crop oil concentrate so that the final spray solutions contained 1.25+/−0.05% (v/v) crop oil concentrate.
All stock solutions and applications solutions were visually inspected for compound compatibility prior to application. Spray solutions were applied to the plant material with an overhead Mandel track sprayer equipped with a 8002E nozzles calibrated to deliver 187 L/ha over an application area of 0.503 m^2 at a spray height of 18 to 20 inches (46 to 50 cm) above average plant canopy height. Control plants were sprayed in the same manner with the solvent blank.
The treated plants and control plants were placed in a greenhouse as described above and watered by sub-irrigation to prevent wash-off of the test compounds. After approximately 3 weeks, the condition of the test plants as compared with that of the untreated plants was determined visually and scored on a scale of 0 to 100 percent where 0 corresponds to no injury or growth inhibition and 100 corresponds to complete kill. […]

The subject of test [2] is SETFA (Setaria faberi Herrm., giant foxtail). Description: Example IV postemergence foliar-applied mixtures, general weed control, greenhouse: SETFA. How it is done: (§1) Seeds or nutlets of the desired test plant species were planted in Sun Gro Metro-Mix® 360 planting mixture, which typically has a pH of 6.0 to 6.8 and an organic matter content of about 30 percent, in plastic pots with a surface area of 84.6 square centimeters (cm^2). […] The plants were grown for 7-31 days (d) in a greenhouse with an approximate 15 hour (h) photoperiod which was maintained at about 23-29° C. during the day and 22-28° C. during the night. Nutrients (Peters Excel® 15-5-15 5-Ca 2-Mg) and water were added on a regular basis and supplemental lighting was provided with overhead metal halide 1000-Watt lamps as necessary. The plants were employed for testing when they reached the first, second, or third true leaf stage.
(§2) Treatments consisted of the acid or the benzyl ester of 4-amino-3-chloro-5-fluoro-6-(4-chloro-2-fluoro-3-methoxy-phenyl)pyridine-2-carboxylic acid (Compound A), each formulated as an SC, and various herbicidal components alone and in combination. Forms of compound A were applied on an acid equivalent basis.
(§3) Other herbicidal components were applied on an acid equivalent or active ingredient basis and included the 5-enolpyruvylshikimate-3-phosphate synthase (EPSPS)-inhibiting herbicide, glyphosate dimethylamine salt, formulated as Durango DMA® and the glutamine synthase (GS)-inhibiting herbicide, glufosinate ammonium, formulated as Ignite® 280.
(§4) For treatments comprised of formulated compounds, measured amounts of compounds were placed individually in 25 mL glass vials and diluted in a volume of 1.25% (v/v) Agri-dex crop oil concentrated to obtain 12× stock solutions. […] Application solutions were prepared by adding an appropriate amount of each stock solution (typically 1 mL) and diluted to the appropriate final concentrations with the addition of 10 mL of an aqueous mixture of 1.25% (v/v) Agri-dex crop oil concentrate so that the final spray solutions contained 1.25% (v/v) Agri-dex crop oil concentrate.
(§5) All stock solutions and applications solutions were visually inspected for compound compatibility prior to application. Compound requirements are based upon a 12 mL application volume at a rate of 187 liters per hectare (L/ha). Formulated compounds were applied to the plant material with an overhead Mandel track sprayer equipped with 8002E nozzles calibrated to deliver 187 L/ha over an application area of 0.503 square meters (m^2) at a spray height of 18 to 20 inches (46 to 50 cm) above the average plant canopy height. Control plants were sprayed in the same manner with the solvent blank.
(§6) The treated plants and control plants were placed in a greenhouse as described above and watered by sub-irrigation to prevent wash-off of the test compounds. After approximately 3 weeks, the condition of the test plants as compared with that of the untreated plants was determined visually and scored on a scale of 0 to 100 percent where 0 corresponds to no injury or growth inhibition and 100 corresponds to complete kill.
(§7) Colby's equation was used to determine the herbicidal effects expected from the mixtures (Colby, S. R. 1967. Calculation of the synergistic and antagonistic response of herbicide combinations. Weeds 15:20-22.) .

The subject of test [3] is CHEAL (Chenopodium album L., common lambsquarters). Description: Example IV postemergence foliar-applied mixtures, general weed control, greenhouse: CHEAL. How it is done:
as §1, §2, §3, §4, §5, §6, §7

Test [4] deals with ECHCG (Echinochloa crusgalli (L.) Beauv., barnyardgrass). As to the kind of experiment: Example IV postemergence foliar-applied mixtures, general weed control, greenhouse: ECHCG. How it is done:
as §6, §7
The following equation was used to calculate the expected activity of mixtures containing two active ingredients, A and B:
A=observed efficacy of active ingredient A at the same concentration as used in the mixture.
B=observed efficacy of active ingredient B at the same concentration as used in the mixture.

Setting [5] is: Compound A Benzyl Ester 2 gae/ha alone, 18 DAA.
Where [6] appears, read: Compound A Benzyl Ester 4 gae/ha alone, 18 DAA.
[7] abbreviates: Compound A Benzyl Ester 8 gae/ha alone, 18 DAA.
Setting [8] is: Compound A Benzyl Ester alone, 2 gae/ha.
The mark [9] stands for this setting: Compound A Benzyl Ester alone, 4 gae/ha.
[10] abbreviates: Glufosinate ammonium salt 450 gai/ha alone, 18 DAA.

For the compound `COc1c(Cl)ccc(-c2nc(C(=O)O)c(Cl)c(N)c2F)c1F` [Compound A Acid, 4-amino-3-chloro-6-(4-chloro-2-fluoro-3-methoxyphenyl)-5-fluoropyridine-2-carboxylic acid], the “Visual Weed Control (%) - 21 DAA CYPDI Obs” value came out at 50% in test [1] (Compound A Acid alone, 4.38 gae/ha) and 85% in test [1] (Compound A Acid alone, 8.75 gae/ha).
As to `COc1c(Cl)ccc(-c2nc(C(=O)OCc3ccccc3)c(Cl)c(N)c2F)c1F` [Compound A Benzyl Ester], the “VisualWeed Control (%) - 18 DAA SETFA Obs” value (“VisualWeed Control (%)” below) in test [2] (setting [5]) was determined as 40%; in test [2] (setting [6]), 40%; in test [2] (setting [7]), 75%; in test [2] (Compound A Benzyl Ester 16 gae/ha alone, 18 DAA) it was 85%; in test [2] (Compound A Benzyl Ester 32 gae/ha alone, 18 DAA), 90%; in test [2] (setting [8]) it was 40%. Further, the “VisualWeed Control (%)” value in test [2] (setting [9]) is 40%. The “Visual Weed Control (%) - 18 DAA CHEAL Obs” value is recorded as 50% in test [3] (setting [5]); 70% in test [3] (setting [6]); 90% in test [3] (setting [7]); 50% in test [3] (setting [8]); 70% in test [3] (setting [9]); 90% in test [3] (Compound A Benzyl Ester alone, 8 gae/ha). Besides, the “Visual Weed Control (%) - 18 DAA CHEAL Obs” value was found to be 95% in test [3] (Compound A Benzyl Ester alone, 16 gae/ha) and 99% in test [3] (Compound A Benzyl Ester alone, 32 gae/ha). Besides, in test [4] (Compound A Benzyl Ester 8 gae/ha alone), the “Visual Weed Control (%) - 18 DAA ECHCG Obs” value came to 40%.
For `CP(=O)(O)CCC(N)C(=O)O` (stereo not drawn) [Glufosinate ammonium salt, 2-amino-4-(hydroxymethylphosphinyl)butanoic acid monoammonium salt, reference compound], the “Visual Weed Control (%) - 21 DAA CYPDI Obs” value is given as 0% in test [1] (glufosinate ammonium alone, 135.5 gae/ha) and 0% in test [1] (glufosinate ammonium alone, 271 gae/ha). In addition, in test [2] (setting [10]), the “VisualWeed Control (%)” value worked out at 60%. The “Visual Weed Control (%) - 18 DAA CHEAL Obs” value was found to be 0% in test [3] (Glufosinate ammonium salt 112.5 gai/ha alone, 18 DAA); 10% in test [3] (Glufosinate ammonium salt 225 gai/ha alone, 18 DAA); 30% in test [3] (setting [10]). Further, the “Visual Weed Control (%) - 18 DAA ECHCG Obs” value in test [4] (Glufosinate ammonium salt 112.5 gai/ha alone) was 0%; in test [4] (Glufosinate ammonium salt 225 gai/ha alone) it was 0%; in test [4] (Glufosinate ammonium salt 450 gai/ha alone), 10%.
